This note sets out measurements from US5292737A, “N,N'-bis(sulfonamido)-2-amino-4-iminonaphthalen-1-ones and N,N'-bis(amido)-2-amino-4-iminonaphthalen-1-ones” (Sphinx Pharmaceuticals Corporation, priority 1992, dated 1994).

Molecules are shown by their SMILES.

One test deals with T1, PKC isoenzyme ζ (Homo sapiens, UniProt Q05513).
T1 construct: made in house; host or cells: baculovirus-insect cell expression system
T1 sequence (Q05513 1-592): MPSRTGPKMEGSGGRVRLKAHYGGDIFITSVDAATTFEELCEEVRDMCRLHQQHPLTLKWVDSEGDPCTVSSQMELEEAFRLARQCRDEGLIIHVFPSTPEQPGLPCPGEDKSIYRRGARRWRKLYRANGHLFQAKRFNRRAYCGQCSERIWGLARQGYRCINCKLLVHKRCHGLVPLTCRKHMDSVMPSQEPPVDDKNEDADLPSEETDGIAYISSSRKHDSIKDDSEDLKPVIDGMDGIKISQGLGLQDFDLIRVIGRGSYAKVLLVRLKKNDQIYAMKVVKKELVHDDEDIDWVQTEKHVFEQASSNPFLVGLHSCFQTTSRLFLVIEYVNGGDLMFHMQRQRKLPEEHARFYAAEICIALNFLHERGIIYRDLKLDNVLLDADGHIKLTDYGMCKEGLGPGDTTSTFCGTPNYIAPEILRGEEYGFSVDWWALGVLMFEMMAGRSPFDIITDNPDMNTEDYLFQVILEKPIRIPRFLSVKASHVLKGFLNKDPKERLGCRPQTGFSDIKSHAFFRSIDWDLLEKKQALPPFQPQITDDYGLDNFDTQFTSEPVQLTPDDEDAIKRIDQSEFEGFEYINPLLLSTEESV
In words: Protein kinase C inhibition assay, PKC isoenzyme ζ. It is filed as biochemical. The conditions noted are these: read-out: IC50 PKC .zeta. The protocol: (§1) A protein kinase C (PKC) assay is designed to duplicate the in vivo conditions required for protein kinase C function. Therefore, pH, salt and cofactor concentrations are similar to physiologic levels. Either lysine rich histone H1 (H1) or Myelin basic protein (Mbp) are used in the assay as the phosphorylation acceptor-protein because they are readily available and serve as good substrates for protein kinase C. Enzyme was prepared from baculovirus-insect cell expression systems.
(§2) In the screening assay, phosphatidylserine (PS) and DAG were co-sonicated to form unilamellar and multilamellar vesicles. The concentration of lipids in the assay were suboptimal to maximize the detection potential of the assay for inhibitors or activators. Potential effector compounds were added to the assay in dimethylsulfoxide at four concentrations to give final inhibitor concentrations of 1, 10, 50, and 150 μM, respectively.
(§3) The assay was started with the addition of enzyme and stopped after 10 min by the addition of 25% trichloroacetic acid (TCA) and 1.0 mg/ml bovine serum albumin (BSA). The radioactive histone product was retained and washed on glass fiber filters that allow the unreacted P-ATP to pass through. The amount of phosphorylation was determined by measuring radioactivity with a scintillation counter. Controls were included in every assay to measure background activity in the absence of enzyme, activity in the absence of lipids, and the maximum enzyme activity with saturating levels of the activator lipids.
(§4) Results of the protein kinase C assay are shown in Table 4 in columns labeled α, βII, γ, δ, ε, and .zeta. which represent various PKC isoenzymes. Results are show as IC50, which is the concentration of test compound needed to inhibit 50% of the protein kinase C activity in controls.

The next test has as its target T2, PKC isoenzyme βII (Homo sapiens, UniProt P05771).
T2 construct: made in house; host or cells: baculovirus-insect cell expression system
In words: Protein kinase C inhibition assay, PKC isoenzyme βII. The format is biochemical. The conditions noted are these: read-out: IC50 PKC βII. The protocol: as §1, §2, §3, §4

The next test concerns the target T3, PKC isoenzyme ε (Homo sapiens, UniProt Q02156).
T3 construct: made in house; host or cells: baculovirus-insect cell expression system
T3 sequence (Q02156 1-737): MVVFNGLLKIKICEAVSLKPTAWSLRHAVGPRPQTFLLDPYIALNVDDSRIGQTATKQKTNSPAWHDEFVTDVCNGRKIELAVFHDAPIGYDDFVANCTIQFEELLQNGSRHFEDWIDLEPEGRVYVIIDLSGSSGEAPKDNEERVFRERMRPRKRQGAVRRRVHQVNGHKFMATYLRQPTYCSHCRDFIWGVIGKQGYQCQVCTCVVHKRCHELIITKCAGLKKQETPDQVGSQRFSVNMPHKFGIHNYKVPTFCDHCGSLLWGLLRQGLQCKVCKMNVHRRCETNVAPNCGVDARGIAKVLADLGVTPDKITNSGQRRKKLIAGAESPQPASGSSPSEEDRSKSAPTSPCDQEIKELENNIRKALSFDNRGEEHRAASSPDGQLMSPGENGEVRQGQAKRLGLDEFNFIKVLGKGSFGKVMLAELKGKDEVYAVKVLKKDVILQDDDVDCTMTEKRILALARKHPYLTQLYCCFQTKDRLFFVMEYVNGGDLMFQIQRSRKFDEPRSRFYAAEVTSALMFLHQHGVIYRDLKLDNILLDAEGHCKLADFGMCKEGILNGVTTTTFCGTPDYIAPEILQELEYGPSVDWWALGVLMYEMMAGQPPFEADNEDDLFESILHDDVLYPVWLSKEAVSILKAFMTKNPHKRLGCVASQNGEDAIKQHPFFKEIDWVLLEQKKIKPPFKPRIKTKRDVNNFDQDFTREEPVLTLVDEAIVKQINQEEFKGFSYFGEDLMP
In words: Protein kinase C inhibition assay, PKC isoenzyme ε. It is filed as biochemical. The conditions noted are these: read-out: IC50 PKC ε. The protocol: as §1, §2, §3, §4

The target in another test is T4, PKC isoenzyme α (Homo sapiens, UniProt P17252).
T4 construct: made in house; host or cells: baculovirus-insect cell expression system
The test is described as follows: Protein kinase C inhibition assay, PKC isoenzyme α. The format is biochemical. As to conditions: read-out: IC50 PKC α. The protocol: as §1, §2, §3, §4

A further test has as its target T5, PKC isoenzyme δ (Homo sapiens, UniProt Q05655).
T5 construct: made in house; host or cells: baculovirus-insect cell expression system
In words: Protein kinase C inhibition assay, PKC isoenzyme δ. The format is biochemical. As to conditions: read-out: IC50 PKC δ. The protocol: as §1, §2, §3, §4

The target of a further test is T6, PKC isoenzyme γ (Homo sapiens, UniProt P05129).
T6 construct: made in house; host or cells: baculovirus-insect cell expression system
In words: Protein kinase C inhibition assay, PKC isoenzyme γ. It is filed as biochemical. The conditions noted are these: read-out: IC50 PKC γ. The protocol:
as §1, §2, §3, §4

Test [1] has as its target cAMP dependent protein kinase (PKA). In words: cAMP Dependent Protein Kinase (PKA) Assay. The format is biochemical. As to conditions: for IC50: catalytic subunit of PKA. The protocol:
Compounds found to be inhibitors of protein kinase C were tested for inhibitory activity against cAMP dependent protein kinase (PKA). This enzyme, like protein kinase C, plays an important role in cell-cell communication and is activated by a second messenger, cAMP. Secondary screening against PKA is useful for ascertaining the selectivity of the compounds of the invention.
The catalytic subunit of PKA (Sigma Chemical Company, St. Louis, Mo.) was mixed with buffer before addition of the inhibitor in dimethylsulfoxide (DMSO). Potential inhibitor compounds were added to the assay in dimethylsulfoxide at two concentrations to give final inhibitor concentrations of 30 and 150 μM, respectively. The assay was started by the addition of ^32 P-ATP and the reaction was allowed to proceed for 10 min before stopping with 25% trichloroacetic acid (TCA) and 1.0 mg/ml bovine serum albumin (BSA). Phosphorylated protein was then isolated by filtration and the radioactivity was counted by a beta scintillation counter.

Test [2] concerns normal human epidermal keratinocyte (NHEK) cells. The test is described as follows: Human Keratinocyte Inhibition (3H TdR Assay). It is filed as cell-based. The conditions noted are these: Homo sapiens, 24 h incubation, 3H-thymidine. The protocol:
Proliferating normal human epidermal keratinocyte (NHEK) cells were obtained in the second passage and grown in keratinocyte growth medium, KGM (Clonetics, Inc.) at 37° C., 5% CO2. The cells were trypsinized (0.25%), centrifuged, counted with a hemocytometer, and seeded at a concentration of 5000 cells in 100 μl well in a 96-well microtiter plate.
After the cells were allowed to attach to the microtiter plate overnight, test agents were titrated to determine the dose response. This was done by adding each test agent dilution in quadruplicate to the plate at 2× final concentration in 100 μl to bring the total volume of each well to 200 μl. Culture media with no test agent added was used as a normal control. Duplicate sets of plates were established.
After twenty-four hours of incubation with test compounds 37° C. and 5% CO2, […] of 0.01 mCi/ml tritiated thymidine (New England Nuclear) was added to each well and allowed to incubate for another 4 hours under the same conditions.
Supernatant was aspirated and discarded and […] of 0.05% trypsin (Gibco) was added to each cell. Cells were checked microscopically to determine detachment from surfaces and then harvested onto glass filters. The filters were then placed in vials to which scintillant was added and counted for one minute each in a scintillation counter.
Determine mean cpm of wells containing test agent (n=4) or KGM control (n=16). Calculate % of control by the formula: [formula]
The IC50, or connection necessary to inhibit 50% of control, of each test agent was determined by plotting % control vs log concentration for each dilution and then linear forecasting the 50% control value onto the X axis on a Quatro Pro computer program. Only regression values with a correlation coefficient greater than 0.9 were considered acceptable.

T2 sequence (P05771 1-673 isoform P05771-2): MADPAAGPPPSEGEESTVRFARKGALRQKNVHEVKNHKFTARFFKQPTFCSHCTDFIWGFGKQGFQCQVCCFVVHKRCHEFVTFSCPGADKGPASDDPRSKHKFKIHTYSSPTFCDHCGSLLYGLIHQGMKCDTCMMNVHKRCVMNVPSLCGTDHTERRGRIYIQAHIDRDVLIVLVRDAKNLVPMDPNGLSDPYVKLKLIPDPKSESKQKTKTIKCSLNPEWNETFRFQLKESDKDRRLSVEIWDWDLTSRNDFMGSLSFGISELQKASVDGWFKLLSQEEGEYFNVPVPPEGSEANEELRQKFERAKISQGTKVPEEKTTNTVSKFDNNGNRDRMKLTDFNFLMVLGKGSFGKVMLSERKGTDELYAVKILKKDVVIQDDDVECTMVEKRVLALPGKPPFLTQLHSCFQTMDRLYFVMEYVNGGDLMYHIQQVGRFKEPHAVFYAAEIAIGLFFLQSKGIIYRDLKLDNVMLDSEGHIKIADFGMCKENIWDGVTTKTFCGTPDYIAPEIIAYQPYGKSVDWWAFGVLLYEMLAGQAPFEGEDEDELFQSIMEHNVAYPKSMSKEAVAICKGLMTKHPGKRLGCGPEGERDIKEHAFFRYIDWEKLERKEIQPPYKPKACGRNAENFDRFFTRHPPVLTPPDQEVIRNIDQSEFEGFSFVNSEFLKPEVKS
T5 sequence (Q05655 whole entry): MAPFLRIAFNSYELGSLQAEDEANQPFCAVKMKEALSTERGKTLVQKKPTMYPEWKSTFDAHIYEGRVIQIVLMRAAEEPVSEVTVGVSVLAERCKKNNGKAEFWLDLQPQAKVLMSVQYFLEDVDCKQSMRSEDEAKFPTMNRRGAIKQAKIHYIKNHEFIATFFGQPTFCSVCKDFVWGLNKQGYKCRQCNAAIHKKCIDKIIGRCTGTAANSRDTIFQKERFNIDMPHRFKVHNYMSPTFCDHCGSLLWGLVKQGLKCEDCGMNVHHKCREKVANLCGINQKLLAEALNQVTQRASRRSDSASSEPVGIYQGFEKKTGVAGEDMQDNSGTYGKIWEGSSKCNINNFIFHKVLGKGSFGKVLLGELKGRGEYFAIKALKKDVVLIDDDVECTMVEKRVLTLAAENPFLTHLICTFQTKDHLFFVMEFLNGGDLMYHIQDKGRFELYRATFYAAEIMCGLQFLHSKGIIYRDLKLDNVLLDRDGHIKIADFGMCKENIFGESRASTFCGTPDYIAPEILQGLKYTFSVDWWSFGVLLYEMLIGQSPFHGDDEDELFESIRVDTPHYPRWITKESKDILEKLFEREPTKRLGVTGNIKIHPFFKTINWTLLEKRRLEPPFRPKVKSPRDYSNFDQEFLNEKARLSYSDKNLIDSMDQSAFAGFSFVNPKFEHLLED

Turning to `Cc1cc(C)nc(NS(=O)(=O)c2ccc(N=C3C=C(Nc4ccc(S(=O)(=O)Nc5cc(C)cc(C)n5)cc4)C(=O)c4ccccc43)cc2)c1` [Compound 3aj], the concentration for half-maximal inhibition (IC50) at PKC isoenzyme ζ is greater than 150 µM; on PKC isoenzyme βII, greater than 150 µM; on PKC isoenzyme ε, greater than 150 µM; at PKC isoenzyme α, 90 µM; at PKC isoenzyme δ it was greater than 150 µM; on PKC isoenzyme γ it was 88 µM.

With `O=C1C(Nc2ccc(S(=O)(=O)Nc3ncccn3)cc2)=CC(=Nc2ccc(S(=O)(=O)Nc3ncccn3)cc2)c2ccccc21` [Compound 3k], the IC50 was 37 µM at PKC isoenzyme ζ; greater than 150 µM on PKC isoenzyme βII; greater than 150 µM on PKC isoenzyme ε; 111 µM in test [1]; 113 µM on PKC isoenzyme α; 1800 nM in test [2]. The IC50 at PKC isoenzyme δ is greater than 150 µM; on PKC isoenzyme γ it was 24 µM.

As for `CCCCCCCCCCCCCCCCNS(=O)(=O)c1ccc(N=C2C=C(Nc3ccc(S(=O)(=O)NCCCCCCCCCCCCCCCC)cc3)C(=O)c3ccccc32)cc1` [Compound 3o], the IC50 at PKC isoenzyme ζ is 26 µM; at PKC isoenzyme βII, 138 µM; at PKC isoenzyme ε it was greater than 150 µM; in test [1] it was greater than 150 µM; at PKC isoenzyme α it was 117 µM; in test [2], 3800 nM. The figures for the IC50 at PKC isoenzyme δ and on PKC isoenzyme γ were 139 µM and 118 µM, respectively. For the same compound, the “effect on PKA activity” value in test [1] (result in words) is reported as “did not effect on PKA activity”.
